The subject of one data set is lymphocytes of EAE mice. The data set can be described thus: In vitro mitogenic response (LPS, PLP 139-151 peptide) of lymph node lymphocytes of EAE mice. The class given is cell-based, mouse. The note with it: 25 microM FTS; lymphocytes of EAE mice day 10.
Data set [1] has as its system spleen lymphocytes of MRL/lpr and MRL/++ mice. In words: MRL/lpr and MRL/++ mouse spleen lymphocyte proliferation ex vivo. The format is in vivo. The following applies: for response to ConA (stimulation index): 5 mg/Kg FTS for 3 months. On the procedure:
Mice were killed by cervical dislocation and spleens removed with sterile precautions and placed in disposable plastic Petri dishes containing Dulbecco's phosphate-buffered saline (DPBS). Single cell suspensions were obtained by expressing DPBS through the spleen using a syringe and 19 gauge needle. The cells were suspended in DPBS and centrifuged at 1100 rpm for 7 minutes. Erythrocytes were lysed by a 7-minute incubation in 0.83% (weight/volume) ammonium chloride, and cells were immediately washed three times with DPBS. Spleen cells were suspended to a concentration of 3×10^6 cells/ml in RPMI-1640 medium containing 5% fetal calf serum (FCS), 100 units/ml penicillin, 100 μg/ml streptomycin, 2 mM L-glutamine, 0.1 mM non-essential amino acids, 1 mM sodium pyruvate, and 50 μM 2-mercaptoethanol. Cells were cultured at a concentration of 6×10^5 cells/200 μl culture medium/well in 96-well, flat-bottomed, microculture plates, and were incubated for 72 hours in a humidified atmosphere of 95% air and 5% CO2 at 37° C. At the end of this time, 1 μCi tritiated thymidine (3H-TdR) was added to each well in a 10 μl volume and the cultures were further incubated for 18 hours. Cells from each microculture were harvested on fibroglass filters with multiharvester and counted in liquid scintillation β counter.
Mitogens and antigens were diluted to appropriate concentrations in the incubation medium and added to the wells at the beginning of incubation period to give a final concentration of 1.0 μg/ml lipopolysaccharide (LPS), 1.0 μg/ml Concanavalin A (ConA) or 10 μg/ml beta2-Glycoprotein I (beta2-GPI). Spontaneous proliferation (without mitogen or antigen) was also assessed.
To determine the effect of FTS on the MRL/lpr and MRL/++ mouse splenocyte proliferation ex vivo, spleen cells suspensions were prepared from three individual spleens per group, and were separately analyzed in culture (in triplicate). Splenocyte proliferation was evaluated in the presence of LPS, ConA or β2-GPI.
The results are expressed as the mean value of stimulation index per group. The stimulation index was calculated as follows: the mean dpm of cells cultured in the presence of mitogen/antigen divided by the mean dpm of cells cultured in the absence of mitogen/antigen.
The effect of FTS on lymphocyte proliferation in vivo in MRL/lpr and control MRL/++ mice was determined by ex-vivo experiments. The mice received 5 mg/Kg FTS (5 days a week) for 3 months and spleen lymphocyte proliferation assays were then performed in vitro with no added FTS. Baseline 3H-TdR incorporation was similar in all four groups examined except for a trend towards higher values in the MRL/++ mice treated with FTS. […] As described previously (18, 19), the response of the MRL/lpr mice to ConA was markedly lower than in the MRL/++ control mice. […] An antigen-specific proliferative response to β2-GPI was measured and a significant 50% reduction in the response of lymphocytes of FTS-treated mice was measured in both MRL/lpr and MRL/++ mice.

The next data set relates to MRL/lpr mice. In words: Open field test in MRL mice. The class given is in vivo, mouse. The following applies: 20 minutes. Here is the method:
Saline-treated and FTS-treated MRL/lpr and saline-treated MRL/++ mice (n=5), were tested for spatial behavior in a novel environment in an open field. The apparatus comprised of a circular pool (120 cm diameter by 50 cm high) placed in a lighted room. The test was conducted during the light phase of day-night cycle. The mice were brought to the experimental room 1 hour before testing. Each mouse was removed gently from its cage, placed individually at the center of the field, and videotaped with a camcorder for 20 minutes. At the end of each session the pool was cleaned with paper towels moistened with ammonium glass cleaner to remove urinary trails. The frequency and duration of progression or stopping in the open field was analyzed during playback of the video records by software custom-written by Dr. David Eilam (Life Sciences Department, Tel-Aviv University). Total distance traveled, locomotion time, speed of moving, spatial distribution of explorations and latency for establishing a home base, and duration of staying there, were extracted.

In data set [2] the test system is TAA-induced liver cirrhosis in Wistar rats. The data set can be described thus: Hepatic hydroxyproline levels in TAA-induced cirrhosis. The format is in vivo, rat. Here is the method:
Liver cirrhosis was induced in rats by intraperitoneal (i.p.) administration of TAA 200 mg/kg twice weekly for 12 weeks, as previously described (1, 2). […] The FTS was dissolved in PBS and administered i.p. 3 times a week to rats according to their assigned groups. Four groups containing 6 rats each were treated as follows. One group received TAA 200 mg/kg i.p. twice a week and i.p. injections of PBS 3 days a week for 12 weeks (cirrhotic controls for the FTS-treated groups). A second group received TAA for 12 weeks and FTS 5 mg/kg, 3 times a week. […] The two control groups consisted of one that received PBS injections without TAA for 12 weeks (normal controls) and a group of 5 rats that received only FTS 5 mg/kg i.p. for 12 weeks to monitor the appearance of adverse effects. Quantitative determination of hepatic hydroxyproline levels was performed as previously described (2). The hydroxyproline levels were analyzed twice and separately for each liver.

The nature of data set [3]: Solubility in water and saline. The format is physicochemical. The source says: In these formulations, the alkyl gallate, etc., is present in an amount of from 0.02% to about 0.05%, and the citric or phosphoric acid is present in an amount of about 0.01%. These formulations are suitable for parenteral administraiton.
In one embodiment of the present invention, both of these shortcomings are overcome by formulating the agent in cyclodextrin. This technology is the subject of U.S. Pat. Nos. 5,681,828 and 5,935,941. Cyclodextrins are a group of compounds consisting of, or derived from, the three parent cyclodextrins—alpha-, beta- and gamma-cyclodextrins. Alpha-, beta- and gamma-cyclodextrins are simple oligosaccharides consisting of six, seven or eight anhydroglucose residues, respectively, connected to macrocyles by alpha (1 to 4) glycosidic bonds. Each of the glucose residues of a cyclodextrin contains one primary (O6) and two secondary hydroxyls (O2 and O3) which can be substituted, for example, methylated. Many cyclodextrin preparations in practical use are mixtures of chemically individual derivatives in which only a part of hydroxy groups were substituted and which differ in number and position of these substituents.

Data set [4] concerns cancers in animals mediated by oncogenic forms of Ras. The following applies: cited from earlier work.

Regarding `CC(C)=CCC/C(C)=C/CC/C(C)=C/CSc1ccccc1C(=O)O` [FTS, farnesyl thiosalicylic acid], in the data set on lymphocytes of EAE mice, the “suppression of the LPS mitogenic response” value was found to be 91%. Further, in the data set on lymphocytes of EAE mice, the “suppression of the PLP mitogenic response” value worked out at 62%. Moreover, in data set [1] (5 mg/Kg FTS 5 days a week for 3 months), the “reduction of the response to LPS (stimulation index)” value was “two-fold reduction”. Also, the “decrease in splenocyte proliferation to ConA, LPS and β2-GPI” value in data set [1] (FTS 5 mg/Kg/day) came to 50%. Further, the “response to ConA (stimulation index)” value in data set [1] (MRL/++ mice) is recorded as “not in lymphocytes of the FTS-treated MRL/++”; in data set [1] (MRL/lpr mice), “further reduced”. The “reduction in the proliferative response to β2-GPI” value in data set [1] (both MRL/lpr and MRL/++ mice) is recorded as 50%. The “open field: time spent in the center” value in the data set with MRL/lpr mice was “significant effect on the time spent in the center”. In the data set with MRL/lpr mice, the “open field: total distance covered” value is reported as “no effect on the total distance covered”. Moreover, the hepatic hydroxyproline levels in data set [2] (TAA plus FTS, TAA alone 7.7±0.9) is 3.8±0.5 mg/g protein; in data set [2] (control group treated with FTS only), 1.6±0.1 mg/g protein. For the same molecule, the “solubility in water / saline” value in data set [3] was “insoluble in water”. For the same molecule, the “reduction in cancer cell growth” value in data set [4] (cancers in animals, in some cases) is “greater than 90%”. The “body weight, specific organs size, blood count and chemistry” value in data set [4] (earlier studies in FTS-treated animals) was “no alteration”. For the same molecule, the “doses that effectively inhibited tumor growth” value in data set [4] (previous animal studies) is 3 to 10 mg/kg. In addition, the “effect on normal cells” value in data set [4] (similar dosages as in cancer treatment) is listed as “very little, if any, effect on normal cells”.
